Experimental findings from patent US20120214760A1, “TREATMENT OF URINARY TRACT INFECTIONS WITH ANTIBACTERIAL AMINOGLYCOSIDE COMPOUNDS” (Achaogen, Inc., priority 2009, published 2012) are described below.

Converted amounts (≈) assume the structure as drawn.

For test [1], the system named is E. coli ATCC 25922 (AECO001). The test is described as follows: MIC, CLSI broth microdilution. The test is classed as cell-based. As to conditions: Escherichia coli, ATCC25922, read-out: MIC AECO001, Table 1; AECO001 is ATCC25922. Here is the method: (§1) Minimum inhibitory concentrations (MIC) were determined by reference Clinical and Laboratory Standards Institute (CLSI) broth microdilution methods per M7-A7 [2006]. Quality control ranges utilizing E. coli ATCC 25922, P. aeruginosa ATCC 27853 and S. aureus ATCC 29213, and interpretive criteria for comparator agents were as published in CLSI M100-S17 [2007]. Briefly, serial two-fold dilutions of the test compounds were prepared at 2× concentration in Mueller Hinton Broth. The compound dilutions were mixed in 96-well assay plates in a 1:1 ratio with bacterial inoculum. The inoculum was prepared by suspension of a colony from an agar plate that was prepared the previous day. Bacteria were suspended in sterile saline and added to each assay plate to obtain a final concentration of 5×10^5 CFU/mL. The plates were incubated at 35° C. for 20 hours in ambient air.

The test system of test [2] is P. aeruginosa ATCC 27853 (APAE001). The test is described as follows: MIC, CLSI broth microdilution. In kind it is cell-based. The conditions noted are these: Pseudomonas aeruginosa, ATCC27853, read-out: MIC APAE001, Table 1; APAE001 is ATCC27853. Here is the method:
as §1

Regarding `CN[C@@H]1[C@@H](O)[C@@H](O[C@@H]2[C@@H](O)[C@H](O[C@H]3OC(CNCCCN)=CC[C@H]3N)[C@@H](N)C[C@H]2NS(=O)(=O)CCN)OC[C@]1(C)O` [Example 26, 6′-(3-Amino-propyl)-1-(2-amino-ethylsulfonamide)-sisomicin], the MIC in test [1] and in test [2] was 1 to 16 µg/mL (≈ 1.63 to 26.2 µM) in each case.
Regarding `CN[C@@H]1[C@@H](O)[C@@H](O[C@@H]2[C@@H](O)[C@H](O[C@H]3OC(CNCC(O)CO)=CC[C@H]3N)[C@@H](N)C[C@H]2NS(=O)(=O)CCN)OC[C@]1(C)O` (stereo partly shown) [Example 27, 6′-(2-Hydroxy-propanol)-1-(2-amino-ethylsulfonamide)-sisomicin], the results for the MIC in test [1] and in test [2] were 1 to 16 µg/mL (≈ 1.59 to 25.4 µM) and over 16 µg/mL, respectively.
The corresponding values for `CN[C@@H]1[C@@H](O)[C@@H](O[C@@H]2[C@@H](O)[C@H](O[C@H]3OC(CNC[C@H](O)CO)=CC[C@H]3N)[C@@H](N)C[C@H]2NC(=O)[C@@H](O)CCN)OC[C@]1(C)O` [Example 28, 6′-(2(S)-Hydroxy-propanol)-1-(4-amino-2(S)-hydroxy-butyryl)-sisomicin] are 1 to 16 µg/mL (≈ 1.61 to 25.7 µM) and 1 to 16 µg/mL (≈ 1.61 to 25.7 µM).
For `CN[C@@H]1[C@@H](O)[C@@H](O[C@@H]2[C@@H](O)[C@H](O[C@H]3OC(CNCCO)=CC[C@H]3N)[C@@H](N)C[C@H]2NS(=O)(=O)CCN)OC[C@]1(C)O` [Example 29, 6′-(2-Hydroxy-ethyl)-1-(2-amino-ethylsulfonamide)-sisomicin], the results for the MIC in test [1] and in test [2] were 1 to 16 µg/mL (≈ 1.67 to 26.7 µM) and over 16 µg/mL, respectively.
The corresponding values for `CN[C@@H]1[C@@H](O)[C@@H](O[C@@H]2[C@@H](O)[C@H](O[C@H]3OC(CNCC(N)CO)=CC[C@H]3N)[C@@H](N)C[C@H]2NC(=O)[C@@H](O)CCN)OC[C@]1(C)O` (stereo partly drawn) [Example 30, 6′-(2-Amino-propanol)-1-(4-amino-2(S)-hydroxy-butyryl)-sisomicin] are under 1 µg/mL and 1 to 16 µg/mL (≈ 1.61 to 25.7 µM).
The like results for `CN[C@@H]1[C@@H](O)[C@@H](O[C@@H]2[C@@H](O)[C@H](O[C@H]3OC(CNCC4(O)CCNCC4)=CC[C@H]3N)[C@@H](N)C[C@H]2NC(=O)[C@@H](O)CCN)OC[C@]1(C)O` [Example 31] were, in that order, 1 to 16 µg/mL (≈ 1.51 to 24.2 µM) and 1 to 16 µg/mL (≈ 1.51 to 24.2 µM).
As for `CN[C@@H]1[C@@H](O)[C@@H](O[C@@H]2[C@@H](O)[C@H](O[C@H]3OC(CNCC(O)CCCN)=CC[C@H]3N)[C@@H](N)C[C@H]2NC(=O)[C@@H](O)CCN)OC[C@]1(C)O` (stereo partly drawn) [Example 32, 6′-(2-Hydroxy-5-amino-pentyl)-1-(4-amino-2(S)-hydroxy-butyryl)-sisomicin], the MIC in test [1] was under 1 µg/mL; in test [2], 1 to 16 µg/mL (≈ 1.54 to 24.6 µM).
The corresponding values for `CN[C@@H]1[C@@H](O)[C@@H](O[C@@H]2[C@@H](O)[C@H](O[C@H]3OC(CNCC4CC(N)C4)=CC[C@H]3N)[C@@H](N)C[C@H]2NC(=O)[C@@H](O)CCN)OC[C@]1(C)O` (stereo partly drawn) [Example 33, 6′-(Methyl-trans-3-amino-cyclobutyl)-1-(4-amino-2(S)-hydroxy-butyryl)-sisomicin] are under 1 µg/mL and 1 to 16 µg/mL (≈ 1.58 to 25.3 µM).
The corresponding values for `CN[C@@H]1[C@@H](O)[C@@H](O[C@@H]2[C@@H](O)[C@H](O[C@H]3OC(CNCC(O)CCN)=CC[C@H]3N)[C@@H](N)C[C@H]2NC(=O)C2(O)CCNC2)OC[C@]1(C)O` (stereo partly shown) [Example 35] are under 1 µg/mL and 1 to 16 µg/mL (≈ 1.54 to 24.7 µM).
Consider `CN[C@@H]1[C@@H](O)[C@@H](O[C@@H]2[C@@H](O)[C@H](O[C@H]3OC(CNCCO)=CC[C@H]3N)[C@@H](N)C[C@H]2NC(=O)C2(O)CNC2)OC[C@]1(C)O` [Example 37], for which the MIC was under 1 µg/mL in test [1] and 1 to 16 µg/mL (≈ 1.69 to 27.1 µM) in test [2].
Consider `CN[C@@H]1[C@@H](O)[C@@H](O[C@@H]2[C@@H](O)[C@H](O[C@H]3OC(CNCCN)=CC[C@H]3N)[C@@H](N)C[C@H]2NC(=O)[C@@H](O)CCN)OC[C@]1(C)O` [Example 38, 6′-(2-Amino-ethyl)-1-(4-amino-2(S)-hydroxy-butyryl)-sisomicin], for which the figures for the MIC in test [1] and in test [2] were under 1 µg/mL and 1 to 16 µg/mL (≈ 1.69 to 27 µM), respectively.
The like results for `CN[C@@H]1[C@@H](O)[C@@H](O[C@@H]2[C@@H](O)[C@H](O[C@H]3OC(CNCCCN)=CC[C@H]3N)[C@@H](N)C[C@H]2NC(=O)C2(O)CCNC2)OC[C@]1(C)O` (stereo partly shown) [Example 40] were, in that order, 1 to 16 µg/mL (≈ 1.62 to 25.9 µM) and 1 to 16 µg/mL (≈ 1.62 to 25.9 µM).
The corresponding values for `CN[C@@H]1[C@@H](O)[C@@H](O[C@@H]2[C@@H](O)[C@H](O[C@H]3OC(CNCC4CC4)=CC[C@H]3N)[C@@H](N)C[C@H]2NC(=O)C2(O)CCNC2)OC[C@]1(C)O` (stereo partly shown) [Example 41] are under 1 µg/mL and 1 to 16 µg/mL (≈ 1.63 to 26 µM).
The like results for `CN[C@@H]1[C@@H](O)[C@@H](O[C@@H]2[C@@H](O)[C@H](O[C@H]3OC(CNCC(O)CN)=CC[C@H]3N)[C@@H](N)C[C@H]2NC(=O)C2(O)CCNC2)OC[C@]1(C)O` (stereo partly shown) [Example 42, 6′-(2-Hydroxy-3-amino-propyl)-1-(3-hydroxy-pyrrolidin-3-yl-acetyl)-sisomicin] were, in that order, 1 to 16 µg/mL (≈ 1.58 to 25.2 µM) and 1 to 16 µg/mL (≈ 1.58 to 25.2 µM).
Regarding `CN[C@@H]1[C@@H](O)[C@@H](O[C@@H]2[C@@H](O)[C@H](O[C@H]3OC(CNCCCCN)=CC[C@H]3N)[C@@H](N)C[C@H]2NC(=O)[C@@H](O)CCN)OC[C@]1(C)O` [Example 43, 6′-(4-Amino-butyl)-1-(4-amino-2(S)-hydroxy-butyryl)-sisomicin], the minimal inhibitory concentration (MIC) in test [1] and in test [2] was under 1 µg/mL throughout.
With `CN[C@@H]1[C@@H](O)[C@@H](O[C@@H]2[C@@H](O)[C@H](O[C@H]3OC(CNCCCCCN)=CC[C@H]3N)[C@@H](N)C[C@H]2NC(=O)[C@@H](O)CCN)OC[C@]1(C)O` [Example 44, 6′-(5-Amino-pentyl)-1-(4-amino-2(S)-hydroxy-butyryl)-sisomicin], the MIC in test [1] is under 1 µg/mL; in test [2], 1 to 16 µg/mL (≈ 1.58 to 25.2 µM).
The corresponding values for `CN[C@@H]1[C@@H](O)[C@@H](O[C@@H]2[C@@H](O)[C@H](O[C@H]3OC(CNCC4(O)CC(N)C4)=CC[C@H]3N)[C@@H](N)C[C@H]2NC(=O)[C@@H](O)CCN)OC[C@]1(C)O` (stereo partly shown) [Example 46] are under 1 µg/mL and 1 to 16 µg/mL (≈ 1.54 to 24.7 µM).
Regarding `CN[C@@H]1[C@@H](O)[C@@H](O[C@@H]2[C@@H](O)[C@H](O[C@H]3OC(CNCC4(O)CC(N)C4)=CC[C@H]3N)[C@@H](N)C[C@H]2NC(=O)C2(O)CNC2)OC[C@]1(C)O` (stereo partly shown) [Example 47], the MIC in test [1] and in test [2] was 1 to 16 µg/mL (≈ 1.55 to 24.8 µM) throughout.
In the case of `CN[C@@H]1[C@@H](O)[C@@H](O[C@@H]2[C@@H](O)[C@H](O[C@H]3OC(CNCC4CCCN4)=CC[C@H]3N)[C@@H](N)C[C@H]2NC(=O)[C@@H](O)CCN)OC[C@]1(C)O` (stereo partly drawn) [Example 49, 6′-(Methyl-pyrrolidin-2-yl)-1-(4-amino-2(S)-hydroxy-butyryl)-sisomicin], the MIC in test [1] was under 1 µg/mL; in test [2] it was 1 to 16 µg/mL (≈ 1.58 to 25.3 µM).
The like results for `CN[C@@H]1[C@@H](O)[C@@H](O[C@@H]2[C@@H](O)[C@H](O[C@H]3OC(CNC[C@H](O)C(=O)O)=CC[C@H]3N)[C@@H](N)C[C@H]2NC(=O)[C@@H](O)CCN)OC[C@]1(C)O` [Example 50, 6′-(2(S)-Hydroxy-3-propanoic)-1-(4-amino-2(S)-hydroxy-butyryl)-sisomicin] were, in that order, over 16 µg/mL and over 16 µg/mL.
The like results for `CN[C@@H]1[C@@H](O)[C@@H](O[C@@H]2[C@@H](O)[C@H](O[C@H]3OC(CNCC(C)(C)CN)=CC[C@H]3N)[C@@H](N)C[C@H]2NC(=O)[C@@H](O)CN)OC[C@]1(C)O` [Example 51, 6′-(2,2-Dimethyl-3-amino-propyl)-1-(3-amino-2(S)-hydroxy-propionyl)-sisomicin] were, in that order, under 1 µg/mL and over 16 µg/mL.
The corresponding values for `CN[C@@H]1[C@@H](O)[C@@H](O[C@@H]2[C@@H](O)[C@H](O[C@H]3OC(CNCCC(N)C4CC4)=CC[C@H]3N)[C@@H](N)C[C@H]2NC(=O)[C@@H](O)CN)OC[C@]1(C)O` (stereo partly drawn) [Example 52, 6′-(3-Amino-3-cyclopropyl-propyl)-1-(3-amino-2(S)-hydroxy-propionyl)-sisomicin] are under 1 µg/mL and 1 to 16 µg/mL (≈ 1.58 to 25.3 µM).
On to `CN[C@@H]1[C@@H](O)[C@@H](O[C@@H]2[C@@H](O)[C@H](O[C@H]3OC(CNC[C@H]4C[C@H](O)CN4)=CC[C@H]3N)[C@@H](N)C[C@H]2NC(=O)[C@@H](O)CN)OC[C@]1(C)O` [Example 53, 6′-(Methyl-4(S)-hydroxy-pyrrolidin-2(R)-yl)-1-(3-amino-2(S)-hydroxy-propionyl)-sisomicin], for which the MIC in test [1] was 1 to 16 µg/mL (≈ 1.58 to 25.2 µM); in test [2] it was over 16 µg/mL.
The corresponding values for `CN[C@@H]1[C@@H](O)[C@@H](O[C@@H]2[C@@H](O)[C@H](O[C@H]3OC(CNCCCO)=CC[C@H]3N)[C@@H](N)C[C@H]2NC(=O)[C@@H](O)CN)OC[C@]1(C)O` [Example 54, 6′-(3-Propanol)-1-(3-amino-2(S)-hydroxy-propionyl)-sisomicin] are under 1 µg/mL and 1 to 16 µg/mL (≈ 1.69 to 27 µM).
The corresponding values for `CN[C@@H]1[C@@H](O)[C@@H](O[C@@H]2[C@@H](O)[C@H](O[C@H]3OC(CNCC(C)(C)N)=CC[C@H]3N)[C@@H](N)C[C@H]2NC(=O)[C@@H](O)CN)OC[C@]1(C)O` [Example 55, 6′-(2-Methyl-2-amino-propyl)-1-(3-amino-2(S)-hydroxy-propionyl)-sisomicin] are 1 to 16 µg/mL (≈ 1.65 to 26.4 µM) and over 16 µg/mL.
The like results for `CN[C@@H]1[C@@H](O)[C@@H](O[C@@H]2[C@@H](O)[C@H](O[C@H]3OC(CNCC4(N)CCC4)=CC[C@H]3N)[C@@H](N)C[C@H]2NC(=O)[C@@H](O)CN)OC[C@]1(C)O` [Example 56, 6′-(Methyl-1-amino-cyclobutyl)-1-(3-amino-2(S)-hydroxy-propionyl)-sisomicin] were, in that order, under 1 µg/mL and over 16 µg/mL.

One may read the MIC as the lowest concentration that inhibits growth of the organism.
